Laboratory results from ChEMBL document CHEMBL1128162, “Synthesis and binding properties of myo-inositol 4,5,6-tris(phosphate) an analogue of myo-inositol 1,4,5-tris(phosphate). Correlation with the ionization state of the molecules” (Bioorg Med Chem Lett, 1995).
pIC50: −log10 of the molar value.

What was measured:
[1] = biological target: Inositol 1,4,5-trisphosphate receptor (Homo sapiens, UniProt Q14571+Q14573+Q14643); test: Binding affinity against Ins(4,5)P2 receptor prepared from purified guinea pig hepatocytes; set-up: species or system Cavia porcellus; conditions: hepatocyte
[2] = Binding affinity against Ins(4,5,6)P3 receptor prepared from purified rat brain cerebellum; type: tissue-based
[3] = Binding affinity against Ins(1,4,5)P3 receptor prepared from purified rat brain cerebellum; type: tissue-based

In the case of `O=P(O)(O)O[C@@H]1[C@@H](O)[C@H](O)[C@H](O)[C@H](O)[C@H]1OP(=O)(O)O`, the IC50 [1] was 50 µM.

Work on `O=P(O)(O)O[C@H]1[C@H](OP(=O)(O)O)[C@@H](O)[C@@H](O)[C@@H](O)[C@@H]1OP(=O)(O)O` yielded a pIC50 [2] of 5.03.

For `O=P(O)(O)O[C@@H]1[C@H](O)[C@H](O)[C@@H](OP(=O)(O)O)[C@H](OP(=O)(O)O)[C@H]1O` [INS(1,4,5)P3], the pIC50 [3] was 8.00.
